Experiments:
Male SD rats = assay: Oral Glucose Tolerance Test; assay type: in vivo, rat; conditions: 10 mg/kg po 30-40 min prior to oGTT (glucose 2 g/kg po), blood glucose AUC t=0 to t=120 min
Protocol: Male SD rats (200-250 g) were housed 2 per cage in a temperature-controlled room with a 12-hour light/dark cycle. They were allowed ad libitum access to water and fed with normal rodent chow. The night before the oral glucose tolerance test (oGTT), the rats were transferred to clean cages and fasted overnight. On the morning of the oGTT, the rats were weighed and randomized into groups based on fasted blood glucose and body weight. Rats were dosed with vehicle (0.5% methocel) or compounds (10 mg/kg, po) thirty to forty min prior to the oGTT (glucose, 2 g/kg, po). Blood was collected from the tail vein at 0, 10, 30, 60 and 120 minutes after glucose challenge to measure blood glucose; plasma was used to determine insulin levels. The area under the curve for blood glucose excursion was calculated from t=0 to t=120 minutes. Percent lowering of glucose was calculated from the AUC data with respect to the vehicle-treated group.

human GPR40 = human GPR40 (Homo sapiens (Human), UniProt O14842); assay: GPR40 Calcium Flux Assay; assay type: cell-based; conditions: transfected HEK293 cells stably expressing human GPR40; Ca2+ mobilization; mean data; read-out: hGPR40 Ca^2+ Assay EC50;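 further: calcium flux followed with the Fluo-8 fluorescent dye, intensity read each second over 8 min as compounds were added to the cells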
human GPR40, sequence (O14842 whole entry): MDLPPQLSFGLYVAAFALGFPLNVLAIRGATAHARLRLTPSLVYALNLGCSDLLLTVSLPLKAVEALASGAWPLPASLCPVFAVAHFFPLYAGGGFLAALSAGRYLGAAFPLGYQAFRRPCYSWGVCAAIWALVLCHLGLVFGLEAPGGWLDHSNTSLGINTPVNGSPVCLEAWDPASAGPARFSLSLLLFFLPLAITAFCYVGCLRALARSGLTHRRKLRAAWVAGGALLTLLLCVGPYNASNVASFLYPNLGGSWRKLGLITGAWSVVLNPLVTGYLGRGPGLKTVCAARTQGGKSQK

Row | Compound | Percent Lowering of Glucose (AUC compound vs. AUC Vehicle) (Male SD rats) [%] | EC50 (human GPR40) [nM]
1 | CC#C[C@@H](Cc1nnn[nH]1)c1ccc(OCc2ccc3sc(C(F)(F)F)c(-c4ccc(OCCOC)cc4C)c3c2)cc1 [Cpd 47, 5-((2S)-2-(4-((3-(4-(2-Methoxyethoxy)-2-methylphenyl)-2-(trifluoromethyl)benzo[b]thiophen-5-yl)methoxy)phenyl)pent-3-yn-1-yl)-1H-tetrazole] | 91 | –
2 | CC#C[C@@H](Cc1nnn[nH]1)c1ccc(OCc2ccc3scc(-c4ccc(OCC5(C)CS(=O)(=O)C5)cc4C)c3c2)cc1 [Cpd 12, (2S)-3-((4-(5-((4-(1-(1H-Tetrazol-5-yl)pent-3-yn-2-yl)phenoxy)methyl)benzo[b]thiophen-3-yl)-3-methylphenoxy)methyl)-3-methylthietane 1,1-dioxide] | 101 | –
3 | CC#C[C@@H](Cc1nnn[nH]1)c1ccc(OCc2ccc3sc(F)c(-c4ccc(OCCOC)cc4C)c3c2)cc1 [Cpd 44, (2S)-5-(2-(4-((2-Fluoro-3-(4-(2-methoxyethoxy)-2-methylphenyl)benzo[b]thiophen-5-yl)methoxy)phenyl)pent-3-yn-1-yl)-1H-tetrazole] | 91 | –
4 | CC#C[C@@H](Cc1nnn[nH]1)c1ccc(OCc2ccc3scc(-c4ccccc4C)c3c2)cc1 [Cpd 1, (2S)-5-(2-(4-((3-(2-Methylphenyl)benzo[b]thiophen-5-yl)methoxy)phenyl)pent-3-yn-1-yl)-1H-tetrazole] | 81 | –
5 | CC#C[C@@H](Cc1nnn[nH]1)c1ccc(OCc2ccc3scc(-c4ccc(OCCCS(C)(=O)=O)cc4C)c3c2)cc1 [Cpd 16, (2S)-5-(2-(4-((3-(2-Methyl-4-(3-(methylsulfonyl)propoxy)phenyl)benzo[b]thiophen-5-yl)methoxy)phenyl)pent-3-yn-1-yl)-1H-tetrazole] | 105 | –
6 | CC#C[C@@H](Cc1nnn[nH]1)c1ccc(OCc2ccc3scc(-c4ccc(OCCC(C)(C)O)cc4C)c3c2)nc1 [Cpd 43, (2R)-4-(4-(5-(((5-(1-(1H-Tetrazol-5-yl)pent-3-yn-2-yl)pyridin-2-yl)oxy)methyl)-benzo[b]thiophen-3-yl)-3-methylphenoxy)-2-methylbutan-2-ol] | – | 130
7 | CC#C[C@@H](Cc1nnn[nH]1)c1ccc(OCc2ccc3scc(-c4cc(OCCOC)cnc4C)c3c2)cc1 [Cpd 33, (2S)-3-(5-((4-(1-(1H-Tetrazol-5-yl)pent-3-yn-2-yl)phenoxy)methyl)benzo[b]thiophen-3-yl)-5-(2-methoxyethoxy)-2-methylpyridine] | – | 8
8 | CC#C[C@@H](Cc1nnn[nH]1)c1ccc(OCc2ccc3scc(-c4ncc(OCCOC)cc4C)c3c2)cc1 [Cpd 26, (2S)-2-(5-((4-(1-(1H-Tetrazol-5-yl)pent-3-yn-2-yl)phenoxy)methyl)benzo[b]thiophen-3-yl)-5-(2-methoxyethoxy)-3-methylpyridine] | – | 34
